Assay results as given in US11766413B2 (Nacuity Pharmaceuticals, Inc., priority 2019, dated 2023).
Entries after “also recorded” stand apart in the source; their conditions may differ.

How the values were obtained:
[1] = target: T1, glutamate cysteine ligase (GCL, EC 6.3.2.2) (Homo sapiens, UniProt P48506); conditions: substrate of GCL; read-out: apparent Km; cited from earlier work
T1 sequence (P48506 1-637): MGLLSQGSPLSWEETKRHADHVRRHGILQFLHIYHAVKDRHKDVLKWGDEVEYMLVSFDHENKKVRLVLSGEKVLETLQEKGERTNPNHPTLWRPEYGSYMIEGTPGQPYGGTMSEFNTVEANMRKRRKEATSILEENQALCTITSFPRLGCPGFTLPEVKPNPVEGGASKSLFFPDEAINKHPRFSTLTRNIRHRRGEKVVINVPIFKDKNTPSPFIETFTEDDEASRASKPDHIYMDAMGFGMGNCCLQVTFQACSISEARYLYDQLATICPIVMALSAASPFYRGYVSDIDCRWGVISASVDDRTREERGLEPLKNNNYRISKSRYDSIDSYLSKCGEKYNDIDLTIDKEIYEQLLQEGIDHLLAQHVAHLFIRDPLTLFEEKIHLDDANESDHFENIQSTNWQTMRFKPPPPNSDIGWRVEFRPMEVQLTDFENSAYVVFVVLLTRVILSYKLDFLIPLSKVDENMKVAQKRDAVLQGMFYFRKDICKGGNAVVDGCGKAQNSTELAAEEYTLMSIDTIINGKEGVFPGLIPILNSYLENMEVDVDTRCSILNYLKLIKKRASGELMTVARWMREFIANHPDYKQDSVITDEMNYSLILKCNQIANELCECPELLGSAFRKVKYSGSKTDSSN
T1 sequence (P48507 1-274 partner): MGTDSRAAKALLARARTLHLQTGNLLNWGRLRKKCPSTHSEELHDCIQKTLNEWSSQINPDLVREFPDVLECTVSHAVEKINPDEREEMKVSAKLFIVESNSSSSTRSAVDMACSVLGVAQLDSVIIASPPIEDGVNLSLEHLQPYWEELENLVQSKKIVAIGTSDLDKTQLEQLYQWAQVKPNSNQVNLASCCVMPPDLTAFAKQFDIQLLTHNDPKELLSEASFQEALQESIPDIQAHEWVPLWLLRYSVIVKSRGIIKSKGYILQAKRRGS

[2] = humans, oral dose of 600 mg; cited from earlier work
[3] = Evaluation of retinal penetration of NACA: NACA and NAC levels in plasma, aqueous, vitreous and retina after NACA in drinking water; assay type: in vivo, mice (rd10/rd10 and wild type C57/BL6); conditions: for mean levels in the retina compared with plasma / measurability in the retina: animals treated with NACA; for measurability in the retina: N=20 eyes per strain; for measurements in aqueous, vitreous and retina: nearly all measurements, limit of quantification of the assay; for concentration at 7 days: mouse, retina, oral, 20 mg/mL in drinking water, 20 mg/mL NACA in drinking water, P28 to P35, estimated dose 60-80 mg/day
Description: Animals and Treatments. Mice were treated in accordance with the recommendations of the Association for Research in Vision and Ophthalmology. Litters of homozygous rd10/rd10 mice (B6.CXB1-Pde6brd10/J) and wild type C57/BL6 mice (The Jackson Laboratory, Bar Harbor, Me.) were used for these studies.
Starting on post-natal day 28 (P28), animals were given normal drinking water (n=10 for each strain) or water containing 20 mg/ml NACA (n=10 for each strain).
Analysis of NACA and NAC. Upon sacrifice of the mice on P35, retina, aqueous, vitreous and plasma were collected, weighed, and stabilized as quickly as possible and stored at −80° C. prior to shipment to AIT Bioscience, LLC (Indianapolis, Ind.). The bioanalytical method (BAM.0445.01) for the quantitation of total NAC NACA in K2EDTA was based on derivatization, protein precipitation extraction, and LC-MS/MS instrumental analysis. Any disulfides were reduced to free thiols and subsequently reacted with 2-chloro-1-methylpyridinium iodide (CMPI) to form stable thioethers. The thioether derivatives were detected by LC-MS/MS. Stable label isotope internal standards were used. The method covered a concentration range from 50.0 to 50,000 ng/mL. The thiol moiety of NAC, NACA, and their respective internal standards oxidizes quickly in plasma through formation of disulfides. In order to determine total NAC and total NACA levels in plasma, tris(2-carboxyethyl)phosphine (TCEP) is added during the extraction to reduce disulfide bonds. Ammonium bicarbonate is added to control sample pH near neutral, as TCEP will otherwise acidify the aliquoted samples and hinder derivatization. The free analyte is then derivatized to a stable thioether using 2-chloro-1-methylpyridinium iodide (CMPI). N-acetyl-L-cysteine is used as the reference standard. The assay would not discern the enantiomer, N-acetyl-D-cysteine, if present. A sample volume of 25.0 μL was aliquotted into a 1.2 mL 96-well plate to which was added, in sequence, 25.0 μL internal standard solution (1000 ng/mL NAC-D3 and 1000 ng/mL NACA-D3 in water), 50.0 μL of ammonium bicarbonate (100 mM), 5.0 μL CMPI (60 mM in water), and 5.0 μL of TCEP (60 mM in water). Samples were allowed to react for 30 minutes. To precipitate proteins, 500 μL of acetonitrile was then added to all samples. The plate was covered and the mixtures were shaken and centrifuged. A 50.0 μL aliquot of the supernatant was transferred from each well to a clean plate containing 400 μL of water-acetonitrile (25-75) in each well, and mixed well prior to LC-MS injection.
Samples were analyzed on a Waters Acquity liquid chromatograph interfaced with a Thermo Scientific TSQ Vantage triple quadrupole mass spectrometer with ESI ionization. Each extracted sample was injected (5.0 μL) onto a Waters BEH HILIC column (2.1×100 mm; 1.7 μm) equilibrated at 35° C. Mobile Phase A was ammonium formate (25 mM, pH 3.8). Mobile Phase B was acetonitrile. The LC gradient is tabled below: […]
Peak area ratios from the calibration standard responses were regressed using a (1/concentration^2) linear fit for N-Acetyl-L-Cysteine and N-Acetylcysteine amide.
Evaluation of Retinal Penetration of NACA. To determine retinal levels of NACA/NAC after administration of 20 mg/mL NACA in drinking water for 7 days. This experiment will provide rapid confirmation that NACA and/or NAC penetrate the retina following oral administration. This experiment will also evaluate if the breakdown in the blood-retinal barrier in RP affects the levels of NACA in the retina by comparing animals with RP to wild type mice.
Rd10 and C57BL/6 wild type mice will begin treatment at P28 and at P35 mice will be euthanized and plasma, vitreous and retina samples will be sent to AITB for determination of NAC and NACA levels. Experimental groups: (n=10/group). The research was performed in 3 discrete experiments: […]

diabetic rats = conditions: cited from earlier work
[4] = 20 mg/ml NACA in drinking water

SMILES | Km [1] | time after administration at which no NAC is detectable [2] | mean levels in aqueous humor compared with plasma [3, 4] | mean levels in plasma, rd10 compared with wild type [3, 4] | mean levels in the retina compared with plasma [3] | measurability in the retina [3] | measurements in aqueous, vitreous and retina [3] | expression of VEGF and ICAM-1 (diabetic rats; after 5-month treatment) | up-regulation of VEGF and ICAM-1 expression in retinal blood vessels (diabetic rats) | reactive oxygen species contents in the retinas (diabetic rats; most significantly at 5 months) | retinal pathological changes (electron and light microscopy) (diabetic rats; sacrificed at 3 and 5 months) | concentration at 7 days ([3]; C57/BL6 (wild type), wild type mice) | mean concentration in the aqueous humor, rd10 compared with wild type ([3]; N=8 eyes rd10, N=10 C57/B16) | mean NACA levels in plasma compared with NAC levels ([3]; both strains, 20 mg/ml NACA in drinking water, N=10 per strain) | ratio of NACA:NAC in the retina, rd10 compared with C57/B16 ([3]; oral NACA 20 mg/mL in drinking water) | concentration at 7 days ([3]; rd10/rd10 (B6.CXB1-Pde6brd10/J), rd10 mice)
N[C@@H](CS)C(=O)O [cysteine, L-cysteine] | 100 to 300 µM |  |  |  |  |  |  |  |  |  |  |  |  |  |  | 
CC(=O)N[C@@H](CS)C(=O)O [NAC, N-acetyl-L-cysteine, reference compound] |  | 10 to 12 h | lower than in plasma | greater in rd10 mice than in the wild type | higher than those observed in plasma | measurable in all animals | BLQ | returned to basal levels | attenuated | decreased reactive oxygen species | alleviated the pathological changes |  |  |  |  | 
CC(=O)N[C@@H](CS)C(N)=O |  |  | lower than in plasma | greater in rd10 mice than in the wild type | higher than those observed in plasma | measurable in all animals | BLQ |  |  |  |  | ~2400 ng/g | higher in rd10 mice than wild type | greater than the NAC levels | penetrated retina to a greater extent in rd10 mice than in C57/B16 mice; also recorded: greater in the retina of rd10 mice than in C57/B16 mice | ~6500 ng/g
